Where two headings read alike, the source gives them in different places.
Columns and labels:
[1] = molecular target: T1, ALK (Homo sapiens, UniProt Q9UM73); assay: ALK Kinase Assay (ELISA/TRF, PLC-γ substrate); type: biochemical; conditions: read-out: ALK Potency
T1 construct: host or cells: baculovirus expression system
In short: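 First, plates are coated with substrate (phospholipase C-γ, 10 μg/mL, TBS). Next, 30 ng/ml ALK initiates phosphorylation for 15 min at 37° C. Then Eu-N1 PT66 antibody is added for detection, and a nonlinear dose-response fit of percent inhibition yields IC50.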

[2] = molecular target: T2, JAK2 (Homo sapiens, UniProt O60674); assay: Recombinant Human JAK2 Kinase Assay (TRF); type: biochemical; conditions: read-out: JAK2 Potency
T2 construct: host or cells: baculovirus expression system
In short: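 Baculovirus-expressed JAK2 (15 ng/ml) phosphorylated a biotinylated 15-mer peptide captured on Neutravidin-coated plates, in 20 mM HEPES pH 7.2 with 0.2 μM ATP, 1 mM MnCl2, 0.1% BSA and 2.5% DMSO. Reaction ran 20 min at room temperature; phosphopeptide was detected by time-resolved fluorescence with Eu-N1-labelled PY100 antibody.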

[3] = ALK kinase inhibition, 1 μM ATP
[4] = JAK2 kinase inhibition, 0.2 μM ATP

T2 sequence (O60674 whole entry): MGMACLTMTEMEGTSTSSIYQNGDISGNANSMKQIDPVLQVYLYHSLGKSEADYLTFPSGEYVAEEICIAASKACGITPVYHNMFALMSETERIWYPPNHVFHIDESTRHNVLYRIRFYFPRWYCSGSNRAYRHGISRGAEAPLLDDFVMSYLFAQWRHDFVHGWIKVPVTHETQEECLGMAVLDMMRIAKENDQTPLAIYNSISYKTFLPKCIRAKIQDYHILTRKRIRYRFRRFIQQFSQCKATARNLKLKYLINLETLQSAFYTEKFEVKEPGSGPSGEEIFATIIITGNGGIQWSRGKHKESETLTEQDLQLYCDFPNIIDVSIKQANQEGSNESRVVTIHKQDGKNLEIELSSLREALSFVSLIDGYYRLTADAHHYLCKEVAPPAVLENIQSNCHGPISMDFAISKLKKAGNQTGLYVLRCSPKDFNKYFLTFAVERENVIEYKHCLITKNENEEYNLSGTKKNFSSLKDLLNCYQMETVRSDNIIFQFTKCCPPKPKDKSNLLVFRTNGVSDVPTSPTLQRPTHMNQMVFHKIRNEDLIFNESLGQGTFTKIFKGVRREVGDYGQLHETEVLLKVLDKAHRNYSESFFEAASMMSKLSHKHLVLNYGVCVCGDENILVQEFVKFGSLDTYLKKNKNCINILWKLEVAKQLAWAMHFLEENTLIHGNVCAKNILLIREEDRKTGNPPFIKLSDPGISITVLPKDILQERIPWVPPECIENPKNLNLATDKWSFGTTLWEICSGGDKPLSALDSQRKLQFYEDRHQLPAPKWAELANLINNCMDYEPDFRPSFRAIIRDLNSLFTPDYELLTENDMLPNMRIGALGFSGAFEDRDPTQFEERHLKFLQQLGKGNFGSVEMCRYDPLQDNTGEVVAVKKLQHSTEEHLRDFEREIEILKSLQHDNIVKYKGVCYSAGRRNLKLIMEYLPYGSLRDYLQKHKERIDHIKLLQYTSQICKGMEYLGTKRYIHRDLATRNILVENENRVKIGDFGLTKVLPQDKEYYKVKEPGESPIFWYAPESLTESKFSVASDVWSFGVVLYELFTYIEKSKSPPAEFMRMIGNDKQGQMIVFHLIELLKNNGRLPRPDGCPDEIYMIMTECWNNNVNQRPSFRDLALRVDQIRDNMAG
T1 sequence (Q9UM73 19-1620): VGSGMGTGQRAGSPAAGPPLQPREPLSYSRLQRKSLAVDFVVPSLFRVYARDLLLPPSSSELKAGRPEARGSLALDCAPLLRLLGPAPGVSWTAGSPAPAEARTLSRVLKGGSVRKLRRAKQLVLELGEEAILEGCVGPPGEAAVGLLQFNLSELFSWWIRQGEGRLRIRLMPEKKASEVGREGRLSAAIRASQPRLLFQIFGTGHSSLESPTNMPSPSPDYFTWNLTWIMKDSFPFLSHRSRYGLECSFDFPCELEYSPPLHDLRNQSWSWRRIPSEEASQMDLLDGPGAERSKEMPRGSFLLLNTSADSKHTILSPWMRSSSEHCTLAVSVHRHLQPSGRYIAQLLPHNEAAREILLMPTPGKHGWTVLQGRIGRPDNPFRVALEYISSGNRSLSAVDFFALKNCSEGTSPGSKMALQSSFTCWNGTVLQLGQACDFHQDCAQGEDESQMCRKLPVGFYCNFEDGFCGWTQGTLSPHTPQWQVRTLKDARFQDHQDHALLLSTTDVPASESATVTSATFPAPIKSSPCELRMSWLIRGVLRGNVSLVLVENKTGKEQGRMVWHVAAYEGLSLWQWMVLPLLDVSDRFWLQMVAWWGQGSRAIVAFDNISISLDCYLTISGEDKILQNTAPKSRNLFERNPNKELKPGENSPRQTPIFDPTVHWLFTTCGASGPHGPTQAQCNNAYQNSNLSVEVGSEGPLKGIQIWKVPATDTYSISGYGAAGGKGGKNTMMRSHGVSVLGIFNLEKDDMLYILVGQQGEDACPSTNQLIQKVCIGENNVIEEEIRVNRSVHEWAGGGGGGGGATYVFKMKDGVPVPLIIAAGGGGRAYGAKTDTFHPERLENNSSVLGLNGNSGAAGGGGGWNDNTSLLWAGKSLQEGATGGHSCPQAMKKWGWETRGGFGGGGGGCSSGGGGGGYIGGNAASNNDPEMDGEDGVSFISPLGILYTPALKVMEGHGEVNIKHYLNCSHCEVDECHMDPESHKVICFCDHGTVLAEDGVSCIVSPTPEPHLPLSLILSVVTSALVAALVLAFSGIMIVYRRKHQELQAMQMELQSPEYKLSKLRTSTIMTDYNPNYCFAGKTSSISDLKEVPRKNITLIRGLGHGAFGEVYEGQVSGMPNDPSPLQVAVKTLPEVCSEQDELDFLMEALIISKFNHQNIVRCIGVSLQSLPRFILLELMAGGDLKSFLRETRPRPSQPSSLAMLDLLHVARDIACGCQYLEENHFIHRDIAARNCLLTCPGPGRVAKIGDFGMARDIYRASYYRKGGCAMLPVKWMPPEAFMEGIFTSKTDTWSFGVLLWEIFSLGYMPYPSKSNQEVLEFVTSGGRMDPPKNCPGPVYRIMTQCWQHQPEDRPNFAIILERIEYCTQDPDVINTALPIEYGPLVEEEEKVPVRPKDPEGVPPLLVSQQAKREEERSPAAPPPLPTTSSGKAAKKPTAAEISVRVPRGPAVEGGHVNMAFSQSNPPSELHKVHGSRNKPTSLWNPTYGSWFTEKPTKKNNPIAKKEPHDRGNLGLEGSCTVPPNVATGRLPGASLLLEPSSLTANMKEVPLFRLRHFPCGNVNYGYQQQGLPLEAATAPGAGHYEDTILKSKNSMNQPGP

| IC50 [1, 3] [nM] | IC50 [2, 4] [nM] | IC50 ([1]; ALK Kinase Inhibition) [nM] | IC50 ([2]; JAK2 Kinase Inhibition) [nM] | Molecule |
| --- | --- | --- | --- | --- |
| 100 to 1000 | < 100 | – | – | CC(C)S(=O)(=O)c1cccc(-c2ccc3cnc(Nc4ccc(Cl)c(OC[C@H]5CCCN5)c4)nn23)c1 [Example 1016, [4-Chloro-3-((R)-1-pyrrolidin-2-ylmethoxy)-phenyl]-{7-[3-(propane-2-sulfonyl)-phenyl]-pyrrolo[2,1-f][1,2,4]triazin-2-yl}-amine] |
| 1000 to 10000 | < 100 | – | – | COc1ccc(-c2ccc3cnc(Nc4ccc(-c5cccnc5)cc4)nn23)cn1 [Example 1088, [7-(6-Methoxy-pyridin-3-yl)-pyrrolo[2,1-f][1,2,4]triazin-2-yl]-(4-pyridin-3-yl-phenyl)-amine] |
| – | – | 1000 to 10000 | < 100 | CNC(=O)c1cccc(Nc2ncc3ccc(-c4cccc(S(=O)(=O)NC(C)(C)C)c4)n3n2)c1 [Example 1384, 3-[7-(3-tert-Butylsulfamoyl-phenyl)-pyrrolo[2,1-f][1,2,4]triazin-2-ylamino]-N-methyl-benzamide] |
| 1000 to 10000 | < 100 | – | – | CC(=O)Nc1cccc(Nc2ncc3ccc(-c4cccc(NCCS(C)(=O)=O)c4)n3n2)c1 [Example 893, N-(3-{7-[3-(2-Methanesulfonyl-ethylamino)-phenyl]-pyrrolo[2,1-f][1,2,4]triazin-2-ylamino}-phenyl)-acetamide] |
| < 100 | 100 to 1000 | – | – | COc1cc([C@@H]2CCN(CC(N)=O)C[C@@H]2O)ccc1Nc1ncc2ccc(-c3ccccc3N(C)S(C)(=O)=O)n2n1 (racemic) [Example 842, (±)-2-[(3R,4S)-3-Hydroxy-4-(4-{7-[2-(methanesulfonyl-methyl-amino)-phenyl]-pyrrolo[2,1-f][1,2,4]triazin-2-ylamino}-3-methoxy-phenyl)-piperidin-1-yl]-acetamide] |
| – | – | 100 to 1000 | < 100 | CN1CCN(c2ccc(Nc3ncc4ccc(-c5ccccc5C(N)=O)n4n3)cc2)CC1 [Example 409, 2-{2-[4-(4-Methyl-piperazin-1-yl)-phenylamino]-pyrrolo[2,1-f][1,2,4]triazin-7-yl}-benzamide] |
| 100 to 1000 | < 100 | – | – | CC(C)S(=O)(=O)c1cccc(-c2ccc3cnc(Nc4ccc(Cl)c(OC[C@@H]5CCCN5)c4)nn23)c1 [Example 1015, [4-Chloro-3-((S)-1-pyrrolidin-2-ylmethoxy)-phenyl]-{7-[3-(propane-2-sulfonyl)-phenyl]-pyrrolo[2,1-f][1,2,4]triazin-2-yl}-amine] |
| < 100 | 100 to 1000 | – | – | COc1cc(CN2CCN(C(C)=O)CC2)ccc1Nc1ncc2ccc(-c3ccccc3N(C)S(C)(=O)=O)n2n1 [Example 1240, N-(2-{2-[4-(4-Acetyl-piperazin-1-ylmethyl)-2-methoxy-phenylamino]-pyrrolo[2,1-f][1,2,4]triazin-7-yl}-phenyl)-N-methyl-methanesulfonamide] |
| 100 to 1000 | < 100 | – | – | CC(C)(C)NS(=O)(=O)c1cccc(-c2ccc3cnc(Nc4ccc5nc[nH]c5c4)nn23)c1 [Example 1299, 3-[2-(3H-Benzimidazol-5-ylamino)-pyrrolo[2,1-f][1,2,4]triazin-7-yl]-N-tert-butyl-benzenesulfonamide] |
| < 100 | < 100 | – | – | CN1CCN(c2ccc(Nc3ncc4ccc(-c5cccc(CCC#N)c5)n4n3)cc2)CC1 [Example 1142, 3-(3-{2-[4-(4-Methyl-piperazin-1-yl)-phenylamino]-pyrrolo[2,1-f][1,2,4]triazin-7-yl}-phenyl)-propionitrile] |
| – | – | 1000 to 10000 | < 100 | CN1CCN(C(=O)c2cccc(Nc3ncc4ccc(-c5ccc(S(C)(=O)=O)cc5)n4n3)c2)CC1 [Example 342, {3-[7-(4-Methanesulfonyl-phenyl)-pyrrolo[2,1-f][1,2,4]triazin-2-ylamino]-phenyl}-(4-methyl-piperazin-1-yl)-methanone] |
| < 100 | < 100 | – | – | CN1CCC(c2ccc(Nc3ncc4ccc(-c5cccc(CCC#N)c5)n4n3)cc2)CC1 [Example 1149, 3-(3-{2-[4-(1-Methyl-piperidin-4-yl)-phenylamino]-pyrrolo[2,1-f][1,2,4]triazin-7-yl}-phenyl)-propionitrile] |
| > 10000 | < 100 | – | – | O=S(=O)(c1cccc(-c2ccc3cnc(Nc4ccc(-c5cccnc5)cc4)nn23)c1)N1CCCC1 [Example 1086, (4-Pyridin-3-yl-phenyl)-{7-[3-(pyrrolidine-1-sulfonyl)-phenyl]-pyrrolo[2,1-f][1,2,4]triazin-2-yl}-amine] |
| 100 to 1000 | < 100 | – | – | CN1CCOCc2cc(Nc3ncc4ccc(-c5cccc(NS(C)(=O)=O)c5)n4n3)ccc21 [Example 619, N-{3-[2-(1-Methyl-1,2,3,5-tetrahydro-benzo[e][1,4]oxazepin-7-ylamino)-pyrrolo[2,1-f][1,2,4]triazin-7-yl]-phenyl}-methanesulfonamide] |

Further lines, the molecule ahead of its results:

| Molecule | IC50 [1, 3] [nM] | IC50 [2, 4] [nM] | IC50 ([1]; ALK Kinase Inhibition) [nM] | IC50 ([2]; JAK2 Kinase Inhibition) [nM] |
| --- | --- | --- | --- | --- |
| COc1ccc(-c2ccc3cnc(Nc4ccc(C(=O)N5CCOCC5)cc4)nn23)cn1 [Example 1406, {4-[7-(6-Methoxy-pyridin-3-yl)-pyrrolo[2,1-f][1,2,4]triazin-2-ylamino]-phenyl}-morpholin-4-yl-methanone] | – | – | > 10000 | < 100 |
| COc1cc2c(cc1Nc1ncc3ccc(-c4cccc(S(=O)(=O)NC(C)(C)C)c4)n3n1)CCN(C[C@@H](C)O)CC2 [Example 700] | < 100 | 100 to 1000 | – | – |
| NC(=O)CN1CCC(c2ccc(Nc3ncc4ccc(-c5cccc6cccnc56)n4n3)cc2)CC1 [Example 514, 2-{4-[4-(7-Quinolin-8-yl-pyrrolo[2,1-f][1,2,4]triazin-2-ylamino)-phenyl]-piperidin-1-yl}-acetamide] | 1000 to 10000 | < 100 | – | – |
| CN(c1ccccc1-c1ccc2cnc(Nc3ccc(C4(C#N)CCN(CC(N)=O)CC4)cc3)nn12)S(C)(=O)=O [Example 1549, 2-[4-Cyano-4-(4-{7-[2-(methanesulfonyl-methyl-amino)-phenyl]-pyrrolo[2,1-f][1,2,4]triazin-2-ylamino}-phenyl)-piperidin-1-yl]-acetamide] | – | – | < 100 | < 100 |
| COc1ccc(-c2ccc3cnc(Nc4ccc5nc(CN6CCN(C)CC6)[nH]c5c4)nn23)cn1 [Example 1527, [7-(6-Methoxy-pyridin-3-yl)-pyrrolo[2,1-f][1,2,4]triazin-2-yl]-[2-(4-methyl-piperazin-1-ylmethyl)-3H-benzimidazol-5-yl]-amine] | – | – | 100 to 1000 | < 100 |
| COc1ccc(-c2ccc3cnc(Nc4ccc(N5CCOCC5)cc4)nn23)cn1 [Example 1105, [7-(6-Methoxy-pyridin-3-yl)-pyrrolo[2,1-f][1,2,4]triazin-2-yl]-(4-morpholin-4-yl-phenyl)-amine] | 1000 to 10000 | < 100 | – | – |
| COc1cc(N2CCN(C3CCN(C)CC3)CC2)ccc1Nc1ncc2ccc(-c3ccccc3OC)n2n1 [Example 231, {2-Methoxy-4-[4-(1-methyl-piperidin-4-yl)-piperazin-1-yl]-phenyl}-[7-(2-methoxy-phenyl)-pyrrolo[2,1-f][1,2,4]triazin-2-yl]-amine] | – | – | < 100 | < 100 |
| COc1ccc(Cl)cc1-c1ccc2cnc(Nc3ccc(N4CCC(N5CCOCC5)CC4)cc3)nn12 [Example 335, [7-(5-Chloro-2-methoxy-phenyl)-pyrrolo[2,1-f][1,2,4]triazin-2-yl]-[4-(4-morpholin-4-yl-piperidin-1-yl)-phenyl]-amine] | – | – | 100 to 1000 | < 100 |
| COCCn1cc(-c2ccc3cnc(Nc4cccc(N5CCN(C)CC5)c4)nn23)cn1 [Example 972, {7-[1-(2-Methoxy-ethyl)-1H-pyrazol-4-yl]-pyrrolo[2,1-f][1,2,4]triazin-2-yl}-[3-(4-methyl-piperazin-1-yl)-phenyl]-amine] | 1000 to 10000 | < 100 | – | – |
| COc1ccc(Cl)cc1-c1ccc2cnc(Nc3ccc(N4CCOCC4)c(F)c3)nn12 [Example 188, [7-(5-Chloro-2-methoxy-phenyl)-pyrrolo[2,1-f][1,2,4]triazin-2-yl]-(3-fluoro-4-morpholin-4-yl-phenyl)-amine] | – | – | 1000 to 10000 | < 100 |
| CN(c1ccccc1-c1ccc2cnc(Nc3ccc4nc(CN5CCN(CCO)CC5)[nH]c4c3)nn12)S(C)(=O)=O [Example 1521, N-[2-(2-{2-[4-(2-Hydroxy-ethyl)-piperazin-1-ylmethyl]-3H-benzimidazol-5-ylamino}-pyrrolo[2,1-f][1,2,4]triazin-7-yl)-phenyl]-N-methyl-methanesulfonamide] | – | – | 100 to 1000 | < 100 |
| {6-[7-(3-tert-Butylsulfamoyl-phenyl)-pyrrolo[2,1-f][1,2,4]triazin-2-yl amino]-2-hydroxy-indan-1-yl}-carbamic acid tert-butyl ester [Example 672] | 100 to 1000 | < 100 | – | – |
| COCC(C)OC(=O)COc1ccccc1-c1ccc2cnc(Nc3ccc(N4CCN(C)CC4)c(F)c3)nn12 (stereo not shown) [Example 1397, (2-{2-[3-Fluoro-4-(4-methyl-piperazin-1-yl)-phenylamino]-pyrrolo[2,1-f][1,2,4]triazin-7-yl}-phenoxy)-acetic acid 2-methoxy-1-methyl-ethyl ester] | – | – | 1000 to 10000 | < 100 |
| COc1ccccc1-c1ccn2nc(NCc3cccc(N(C)C)c3)ncc12 [Example 721, (3-Dimethylamino-benzyl)-[5-(2-methoxy-phenyl)-pyrrolo[2,1-f][1,2,4]triazin-2-yl]-amine] | > 10000 | 1000 to 10000 | – | – |
| COc1cc(N2CCC(N3CC[C@@H](O)C3)CC2)ccc1Nc1ncc2ccc(-c3ccccc3OC)n2n1 [Example 479, (R)-1-(1-{3-Methoxy-4-[7-(2-methoxy-phenyl)-pyrrolo[2,1-f][1,2,4]triazin-2-ylamino]-phenyl}-piperidin-4-yl)-pyrrolidin-3-ol] | < 100 | < 100 | – | – |

— patent publication US8471005B2 (Cephalon, Inc., priority 2008, dated 2013)
